Experimental data taken from ChEMBL document CHEMBL4402608 (J Med Chem, 2020).

What was measured:
[1] = target: kappa opioid receptor (KOR) (Homo sapiens, UniProt P41145); assay: Displacement of [3H]-U69593 from KOR (unknown origin) at 10 uM measured after 90 mins by microbeta scintillation counting method relative to control; settings: probe [3H]-U69593
[2] = Displacement of [3H]-Flunitrazepam from rat brain GABA(A)/BzR site measured after 90 mins by microbeta scintillation counting method
[3] = target: D(2) dopamine receptor (Homo sapiens, UniProt P14416); assay: Agonist activity at human D2RS expressed in CHOK1/human U2OS cells assessed as induction of beta-arrestin recruitment at 10 uM measured after 90 mins by beta-galactosidase based PathHunter assay; format: cell-based
[4] = system: GABA PBR; assay: Displacement of [3H]-PK11195 from rat brain GABA PBR at 10 uM measured after 90 mins by microbeta scintillation counting method relative to control; settings: probe [3H]-PK11195
[5] = target: T1, D(4) dopamine receptor (Homo sapiens, UniProt P21917); assay: Displacement of [3H]-N-methylspiperone from recombinant human D4 receptor stably expressed in HEK cell membranes measured after 90 mins by microbeta scintillation counting method
[6] = Displacement of [3H]-PK11195 from rat brain GABA PBR measured after 90 mins by microbeta scintillation counting method
[7] = system: GABA(A)/BzR site; assay: Displacement of [3H]-Flunitrazepam from rat brain GABA(A)/BzR site at 10 uM measured after 90 mins by microbeta scintillation counting method relative to control; settings: probe [3H]-Flunitrazepam
[8] = target: Histamine H3 receptor (Homo sapiens, UniProt Q9Y5N1); assay: Displacement of [3H]-alpha-methylhistamine from recombinant human histamine H3 receptor expressed in HEK Flp-In cell membranes measured after 90 mins by microbeta scintillation counting method
[9] = target: T2, Alpha-2C adrenergic receptor (Homo sapiens, UniProt P18825); assay: Displacement of [3H]-rauwolscine from recombinant human alpha2C adrenergic receptor stably expressed in MDCK cell membranes at 10 uM measured after 90 mins by microbeta scintillation counting method relative to control; settings: probe [3H]-rauwolscine
T2 sequence (P18825 whole entry): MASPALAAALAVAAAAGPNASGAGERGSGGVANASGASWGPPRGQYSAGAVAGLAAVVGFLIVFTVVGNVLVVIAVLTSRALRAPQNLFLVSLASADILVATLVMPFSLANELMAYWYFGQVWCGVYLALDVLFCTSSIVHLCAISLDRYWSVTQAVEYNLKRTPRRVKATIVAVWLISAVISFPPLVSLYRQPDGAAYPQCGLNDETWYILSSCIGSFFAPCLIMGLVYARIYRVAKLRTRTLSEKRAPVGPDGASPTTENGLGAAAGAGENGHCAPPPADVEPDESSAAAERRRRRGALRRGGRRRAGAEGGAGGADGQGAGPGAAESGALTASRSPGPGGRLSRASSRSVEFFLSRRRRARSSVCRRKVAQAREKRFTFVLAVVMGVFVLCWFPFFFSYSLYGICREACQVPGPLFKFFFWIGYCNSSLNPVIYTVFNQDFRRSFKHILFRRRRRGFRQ

[10] = target: Histamine H1 receptor (Homo sapiens, UniProt P35367); assay: Displacement of [3H]-pyrilamine from human histamine H1 receptor expressed in stable HEK cell membranes at 10 uM after 90 mins by microbeta scintillation counting method relative to control; settings: probe [3H]-pyrilamine
[11] = target: T1, D(4) dopamine receptor; assay: Agonist activity at Gi/Go-coupled human D4R expressed in CHOK1 cells assessed as induction of beta-arrestin recruitment at 10 uM measured after 90 mins by beta-galactosidase based PathHunter assay; format: cell-based
[12] = target: T2, Alpha-2C adrenergic receptor
[13] = target: D(1B) dopamine receptor (Homo sapiens, UniProt P21918)
[14] = target: beta3 adrenergic receptor (Homo sapiens, UniProt P13945)
[15] = target: Muscarinic acetylcholine receptor M2 (Homo sapiens, UniProt P08172)
[16] = target: T3, Alpha-1A adrenergic receptor (Homo sapiens, UniProt P35348)
T3 sequence (P35348 whole entry): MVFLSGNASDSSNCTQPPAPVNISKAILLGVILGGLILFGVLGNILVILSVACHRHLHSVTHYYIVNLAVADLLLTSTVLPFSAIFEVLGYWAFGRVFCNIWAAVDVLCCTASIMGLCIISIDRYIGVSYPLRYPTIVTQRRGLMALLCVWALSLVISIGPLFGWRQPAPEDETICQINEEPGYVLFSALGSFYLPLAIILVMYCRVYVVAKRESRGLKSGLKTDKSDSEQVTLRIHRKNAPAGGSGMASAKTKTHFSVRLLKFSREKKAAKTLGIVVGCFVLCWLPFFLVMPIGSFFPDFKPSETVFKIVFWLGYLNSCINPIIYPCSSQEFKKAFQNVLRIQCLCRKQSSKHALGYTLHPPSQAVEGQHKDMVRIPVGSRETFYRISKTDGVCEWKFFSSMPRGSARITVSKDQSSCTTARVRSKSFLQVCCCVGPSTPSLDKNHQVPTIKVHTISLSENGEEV

[17] = target: 5-hydroxytryptamine receptor 1B (Homo sapiens, UniProt P28222)
[18] = target: T4, Beta-2 adrenergic receptor (Homo sapiens, UniProt P07550); assay: Displacement of [3H]-CGP12177 from recombinant human beta2 adrenergic receptor expressed in HEK Flp-In cell membranes measured after 90 mins by microbeta scintillation counting method
[19] = target: 5-hydroxytryptamine receptor 1D (Homo sapiens, UniProt P28221)
[20] = target: 5-hydroxytryptamine receptor 1E (Homo sapiens, UniProt P28566)
[21] = target: Histamine H4 receptor (Homo sapiens, UniProt Q9H3N8)
[22] = target: Sigma non-opioid intracellular receptor 1 (Homo sapiens, UniProt Q99720); assay: Displacement of [3H]-pentazocine from sigma1 receptor (unknown origin) after 90 mins by microbeta scintillation counting method
[23] = target: Muscarinic acetylcholine receptor M3 (Homo sapiens, UniProt P20309)
[24] = target: T4, Beta-2 adrenergic receptor; assay: Displacement of [3H]-CGP12177 from recombinant human beta2 adrenergic receptor expressed in HEK Flp-In cell membranes at 10 uM measured after 90 mins by microbeta scintillation counting method relative to control; settings: probe [3H]-CGP12177
[25] = target: 5-hydroxytryptamine receptor 3A (Homo sapiens, UniProt P46098)
[26] = target: Delta-type opioid receptor (Homo sapiens, UniProt P41143)
[27] = target: 5-hydroxytryptamine receptor 5A (Homo sapiens, UniProt P47898)

kappa opioid receptor (KOR), sequence (P41145 whole entry): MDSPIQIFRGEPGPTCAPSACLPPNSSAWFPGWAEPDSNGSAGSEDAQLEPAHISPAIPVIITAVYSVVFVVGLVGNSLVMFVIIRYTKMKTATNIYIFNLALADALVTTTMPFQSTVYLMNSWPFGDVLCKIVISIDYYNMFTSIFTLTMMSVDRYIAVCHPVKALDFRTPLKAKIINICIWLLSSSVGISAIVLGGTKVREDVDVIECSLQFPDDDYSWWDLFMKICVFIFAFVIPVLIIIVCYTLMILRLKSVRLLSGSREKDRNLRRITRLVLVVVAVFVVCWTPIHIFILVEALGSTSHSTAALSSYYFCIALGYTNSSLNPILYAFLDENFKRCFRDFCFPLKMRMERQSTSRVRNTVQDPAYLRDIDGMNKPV
Histamine H1 receptor, sequence (P35367 whole entry): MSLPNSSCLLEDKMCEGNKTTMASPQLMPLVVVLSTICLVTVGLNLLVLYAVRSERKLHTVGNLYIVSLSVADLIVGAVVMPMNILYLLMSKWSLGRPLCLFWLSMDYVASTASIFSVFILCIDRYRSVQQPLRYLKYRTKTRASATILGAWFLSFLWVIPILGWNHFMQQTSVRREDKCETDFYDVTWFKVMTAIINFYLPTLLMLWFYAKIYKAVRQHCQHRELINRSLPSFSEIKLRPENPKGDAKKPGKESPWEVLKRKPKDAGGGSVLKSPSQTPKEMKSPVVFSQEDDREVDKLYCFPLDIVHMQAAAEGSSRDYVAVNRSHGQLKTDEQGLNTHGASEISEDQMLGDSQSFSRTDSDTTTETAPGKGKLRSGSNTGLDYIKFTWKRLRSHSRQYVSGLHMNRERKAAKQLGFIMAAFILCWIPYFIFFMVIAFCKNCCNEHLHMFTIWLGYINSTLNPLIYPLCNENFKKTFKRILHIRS
T4 sequence (P07550 whole entry): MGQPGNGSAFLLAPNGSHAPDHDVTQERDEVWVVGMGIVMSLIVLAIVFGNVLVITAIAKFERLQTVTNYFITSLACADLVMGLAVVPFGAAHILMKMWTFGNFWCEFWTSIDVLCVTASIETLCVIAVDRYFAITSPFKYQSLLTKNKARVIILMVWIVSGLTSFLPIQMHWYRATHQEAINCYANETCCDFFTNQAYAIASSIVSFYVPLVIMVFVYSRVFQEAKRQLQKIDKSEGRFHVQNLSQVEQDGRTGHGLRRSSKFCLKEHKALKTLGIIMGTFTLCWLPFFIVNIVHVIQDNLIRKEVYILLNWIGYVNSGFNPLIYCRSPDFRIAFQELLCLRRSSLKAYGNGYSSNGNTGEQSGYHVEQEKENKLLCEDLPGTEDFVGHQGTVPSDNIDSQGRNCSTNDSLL
Histamine H3 receptor, sequence (Q9Y5N1 whole entry): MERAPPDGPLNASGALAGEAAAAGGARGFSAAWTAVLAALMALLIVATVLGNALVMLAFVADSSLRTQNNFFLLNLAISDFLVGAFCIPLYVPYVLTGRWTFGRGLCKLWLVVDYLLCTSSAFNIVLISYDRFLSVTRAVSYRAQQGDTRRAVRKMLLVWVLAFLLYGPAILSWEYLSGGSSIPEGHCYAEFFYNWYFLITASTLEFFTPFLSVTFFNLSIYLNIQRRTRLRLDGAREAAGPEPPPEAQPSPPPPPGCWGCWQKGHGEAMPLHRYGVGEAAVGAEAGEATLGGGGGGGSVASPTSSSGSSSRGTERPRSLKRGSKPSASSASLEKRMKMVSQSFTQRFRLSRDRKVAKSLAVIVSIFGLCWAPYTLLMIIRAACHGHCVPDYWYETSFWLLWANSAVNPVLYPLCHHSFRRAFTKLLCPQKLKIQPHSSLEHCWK
T1 sequence (P21917 whole entry): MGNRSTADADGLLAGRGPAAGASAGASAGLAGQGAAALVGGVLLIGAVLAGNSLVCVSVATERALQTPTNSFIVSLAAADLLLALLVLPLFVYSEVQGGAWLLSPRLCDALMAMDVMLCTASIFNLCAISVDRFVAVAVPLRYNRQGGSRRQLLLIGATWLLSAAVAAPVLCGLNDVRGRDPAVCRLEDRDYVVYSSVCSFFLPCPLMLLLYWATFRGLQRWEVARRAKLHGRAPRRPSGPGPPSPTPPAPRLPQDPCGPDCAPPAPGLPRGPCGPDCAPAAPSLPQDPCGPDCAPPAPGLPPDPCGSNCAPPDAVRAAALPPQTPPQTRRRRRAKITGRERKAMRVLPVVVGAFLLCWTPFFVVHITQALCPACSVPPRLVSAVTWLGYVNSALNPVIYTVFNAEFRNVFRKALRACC
Muscarinic acetylcholine receptor M2, sequence (P08172 whole entry): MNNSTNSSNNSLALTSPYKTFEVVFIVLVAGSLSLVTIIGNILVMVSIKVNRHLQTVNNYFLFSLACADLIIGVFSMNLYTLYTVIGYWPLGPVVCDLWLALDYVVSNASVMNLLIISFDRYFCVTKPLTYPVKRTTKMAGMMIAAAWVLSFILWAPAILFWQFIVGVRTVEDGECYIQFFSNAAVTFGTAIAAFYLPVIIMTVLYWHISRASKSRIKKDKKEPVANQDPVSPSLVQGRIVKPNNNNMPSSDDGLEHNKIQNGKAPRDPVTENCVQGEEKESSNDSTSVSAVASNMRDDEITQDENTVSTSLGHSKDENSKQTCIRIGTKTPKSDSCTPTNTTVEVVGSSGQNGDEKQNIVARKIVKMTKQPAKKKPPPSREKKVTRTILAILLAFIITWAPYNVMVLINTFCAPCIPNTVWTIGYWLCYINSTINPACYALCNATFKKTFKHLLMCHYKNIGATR
Muscarinic acetylcholine receptor M3, sequence (P20309 whole entry): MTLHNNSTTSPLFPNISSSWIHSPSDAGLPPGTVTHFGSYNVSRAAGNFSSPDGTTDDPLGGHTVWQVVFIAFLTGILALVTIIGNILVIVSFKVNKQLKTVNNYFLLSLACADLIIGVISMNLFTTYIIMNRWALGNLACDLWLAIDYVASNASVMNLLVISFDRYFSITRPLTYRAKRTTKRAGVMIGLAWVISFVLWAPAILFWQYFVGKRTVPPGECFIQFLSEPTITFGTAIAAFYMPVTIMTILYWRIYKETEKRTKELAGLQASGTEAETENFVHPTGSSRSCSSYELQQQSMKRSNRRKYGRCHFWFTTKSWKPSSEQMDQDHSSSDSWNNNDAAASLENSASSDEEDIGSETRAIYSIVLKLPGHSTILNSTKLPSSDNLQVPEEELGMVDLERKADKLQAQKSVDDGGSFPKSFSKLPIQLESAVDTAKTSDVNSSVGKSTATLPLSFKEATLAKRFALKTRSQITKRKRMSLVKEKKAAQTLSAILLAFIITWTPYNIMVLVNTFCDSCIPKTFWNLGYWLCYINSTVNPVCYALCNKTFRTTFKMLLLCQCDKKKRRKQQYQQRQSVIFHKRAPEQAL
5-hydroxytryptamine receptor 1E, sequence (P28566 whole entry): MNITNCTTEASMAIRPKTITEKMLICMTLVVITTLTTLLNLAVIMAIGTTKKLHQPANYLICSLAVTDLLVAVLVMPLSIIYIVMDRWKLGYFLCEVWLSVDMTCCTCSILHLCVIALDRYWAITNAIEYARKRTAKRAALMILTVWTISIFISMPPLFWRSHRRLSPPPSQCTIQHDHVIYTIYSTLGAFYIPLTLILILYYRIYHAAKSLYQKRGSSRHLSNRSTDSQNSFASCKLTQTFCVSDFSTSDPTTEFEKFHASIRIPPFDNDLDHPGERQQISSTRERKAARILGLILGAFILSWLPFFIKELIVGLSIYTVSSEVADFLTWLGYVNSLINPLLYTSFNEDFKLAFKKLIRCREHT
5-hydroxytryptamine receptor 1D, sequence (P28221 whole entry): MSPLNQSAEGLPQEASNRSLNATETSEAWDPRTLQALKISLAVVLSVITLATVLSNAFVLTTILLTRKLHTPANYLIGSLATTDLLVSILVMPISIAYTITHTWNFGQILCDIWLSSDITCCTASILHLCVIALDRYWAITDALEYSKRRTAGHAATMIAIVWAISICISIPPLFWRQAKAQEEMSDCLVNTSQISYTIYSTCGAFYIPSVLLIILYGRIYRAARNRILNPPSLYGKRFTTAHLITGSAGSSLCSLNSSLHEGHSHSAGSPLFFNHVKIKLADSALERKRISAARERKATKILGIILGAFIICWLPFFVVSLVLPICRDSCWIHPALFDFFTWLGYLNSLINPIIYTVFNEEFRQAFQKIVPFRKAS
Delta-type opioid receptor, sequence (P41143 whole entry): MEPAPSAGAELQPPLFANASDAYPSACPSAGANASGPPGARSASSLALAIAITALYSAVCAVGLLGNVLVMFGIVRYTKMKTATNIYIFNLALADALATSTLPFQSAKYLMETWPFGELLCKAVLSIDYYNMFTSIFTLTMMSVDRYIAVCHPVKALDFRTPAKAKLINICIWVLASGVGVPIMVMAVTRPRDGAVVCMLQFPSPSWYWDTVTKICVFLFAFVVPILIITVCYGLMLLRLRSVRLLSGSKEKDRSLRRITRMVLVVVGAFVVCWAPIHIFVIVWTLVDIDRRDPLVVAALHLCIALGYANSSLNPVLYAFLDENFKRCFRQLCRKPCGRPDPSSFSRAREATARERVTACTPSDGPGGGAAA
5-hydroxytryptamine receptor 1B, sequence (P28222 whole entry): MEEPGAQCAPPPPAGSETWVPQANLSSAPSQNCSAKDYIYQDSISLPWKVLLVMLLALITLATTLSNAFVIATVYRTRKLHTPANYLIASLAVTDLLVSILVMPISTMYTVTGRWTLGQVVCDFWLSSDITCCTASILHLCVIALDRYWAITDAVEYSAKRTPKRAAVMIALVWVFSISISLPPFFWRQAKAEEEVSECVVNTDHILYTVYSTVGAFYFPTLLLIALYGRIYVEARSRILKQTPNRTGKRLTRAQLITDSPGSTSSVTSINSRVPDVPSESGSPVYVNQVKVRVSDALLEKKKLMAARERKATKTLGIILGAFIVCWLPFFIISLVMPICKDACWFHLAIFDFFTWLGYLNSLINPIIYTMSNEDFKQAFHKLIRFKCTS
Sigma non-opioid intracellular receptor 1, sequence (Q99720 whole entry): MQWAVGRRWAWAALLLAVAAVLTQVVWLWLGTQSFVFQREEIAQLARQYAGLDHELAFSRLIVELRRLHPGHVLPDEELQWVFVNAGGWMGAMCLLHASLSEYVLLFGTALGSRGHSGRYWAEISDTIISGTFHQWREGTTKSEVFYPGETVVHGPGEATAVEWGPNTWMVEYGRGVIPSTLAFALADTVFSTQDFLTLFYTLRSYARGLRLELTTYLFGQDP

CCCN(CC[C@]1(O)C[C@H](NC(=O)c2ccc3ccccc3c2)C1)[C@H]1CCc2nc(N)sc2C1
inhibition at […], 10 µM [1]: > 50%
Ki [2]: Not Active
Activity [3]: Active
inhibition at […], 10 µM [4]: < 50%
Ki [5]: 0.045 µM
Ki [6]: Not Active
inhibition at […], 10 µM [7]: < 50%
Ki ([8]; read-out: Ki): 0.893 µM
inhibition at […], 10 µM [9]: < 50%
inhibition at […], 10 µM [10]: > 50%
Activity [11]: Active

CCCN[C@H]1CCc2nc(N)sc2C1 [PRAMIPEXOLE]
Ki [12]: 0.0522 µM
inhibition at […], 10 µM [1]: < 50%
Ki [13]: > 10 µM
Ki [14]: > 10 µM
Ki [15]: > 10 µM
Ki [16]: > 10 µM
Ki [17]: 3.51 µM
Ki [18]: > 10 µM
Ki [19]: > 10 µM
Ki [20]: > 10 µM
Ki [21]: > 10 µM
Ki [22]: 4.45 µM
Ki [23]: > 10 µM
inhibition at […], 10 µM [24]: > 50%
Ki [8]: Not Active
inhibition at […], 10 µM [9]: > 50%
Ki [25]: > 10 µM
inhibition at […], 10 µM [10]: < 50%
Ki [26]: > 10 µM
Ki [27]: > 10 µM
